From US5166214A, “Use of imidazoles for the treatment of atherosclerosis” (priority 1990, dated 1992)
pIC50: −log10 of the molar value.

Key:
[1] = test system: murine macrophage-like cell line J774.A1; assay: Inhibition of cholesterol esterification in mammalian cells (macrophage assay); format: cell-based; conditions: J774.A1 macrophages loaded with ac-LDL, 14C-oleic acid; read-out: Cholesterol Esterification IC50
Method in brief: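 Murine J774.A1 macrophages at 37 °C received 34 μg acetylated human LDL in 10% FBS-DMEM from 24 h, compound in DMSO at 41 h, then a 0.1 mM 14C-oleic acid–BSA pulse from 43 to 45 h. Labelled cholesteryl ester was separated by TLC, counted and normalised to Lowry protein.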

[2] = test system: hypercholesterolemic (cholesterol-fed) hamsters; assay: Antihypercholesterolemic activity in cholesterol-fed hamsters; format: in vivo, hamster; conditions: two weeks; for Serum Cholesterol, Treated: mean ± SEM, n = 9-10; for Serum Cholesterol Decrease: vs control
Procedure: C. Assay of Antihypercholesterolemic Activity in Cholesterol-fed Hamsters
Inhibition of ACAT activity in the gut reduces the absorption of cholesterol in cholesterol-fed animals. Hamsters weighing approximately 100 g, were maintained on a diet supplemented with 0.8% cholesterol. The treatment group received 1-100 mg/kg/day, p.o., of the test compound dissolved in 500 μl of corn oil for a period of two weeks. The control group were pair-fed to the treatment group and were dosed with 500 μl of the corn oil vehicle. At sacrifice, the hamsters were anesthetized with CO2 and exsanguinated via cardiac puncture. Total serum cholesterol was determined on a Du Pont aca® IV. The data were expressed in terms of mg cholesterol per 100 ml of serum (mg %).

## CCCCCCCN(CCCCCSc1nc(-c2ccccc2)c(-c2ccccc2)[nH]1)C(=O)Nc1ccc(F)cc1F [Example 1, N'-(2,4-difluorophenyl)-N-[5-(4,5-diphenyl-1H-imidazol-2-ylthio)pentyl]-N-heptylurea]
[1]
  pIC50: 6.00
[2]; 1 mg/kg/day p.o., control 400 ± 25
  Serum Cholesterol, Treated: 295 ± 12 mg %
[2]; 1 mg/kg/day p.o.
  Serum Cholesterol Decrease: 26%
[2]; 3 mg/kg/day p.o., control 381 ± 17
  Serum Cholesterol, Treated: 279 ± 16 mg %
[2]; 3 mg/kg/day p.o.
  Serum Cholesterol Decrease: 27%
[2]; 10 mg/kg/day p.o., control 371 ± 7
  Serum Cholesterol, Treated: 201 ± 12 mg %
[2]; 10 mg/kg/day p.o.
  Serum Cholesterol Decrease: 46%
[2]; 30 mg/kg/day p.o., control 368 ± 15
  Serum Cholesterol, Treated: 197 ± 11 mg %
[2]; 30 mg/kg/day p.o.
  Serum Cholesterol Decrease: 46%
[2]; 100 mg/kg/day p.o., control 400 ± 17
  Serum Cholesterol, Treated: 62 ± 8 mg %
[2]; 100 mg/kg/day p.o.
  Serum Cholesterol Decrease: 60%
